A short description of test [1]: Potency index, ratio of compound activity for modulation of rat GABAA alpha1beta2gamma2S receptor assessed as EC3 to 10 GABA-induced chloride ion current to triazolam activity for modulation of GABAA alpha1beta2gamma2S receptor (unknown origin) assessed as potentiation of EC5 to 10 GABA-induced chloride ion current.
The target in test [2] is GABA A receptor alpha-3/beta-2/gamma-2 (Homo sapiens) (UniProt P47870+P18507+P34903). Nature of the test: Modulation of GABAA alpha3beta2gamma2S receptor (unknown origin) expressed in Xenopus laevis oocytes assessed as potentiation of EC3 to 10 GABA-induced chloride ion current at holding potential -70 mV at 1 to 300 uM by two-microelectrode voltage clamp assay relative to GABA-treated control. The class given is cell-based.

Test [3] concerns the target T1, GABA-A receptor; alpha-1/beta-3/gamma-2 (Homo sapiens, UniProt P14867+P18507+P28472).
T1 sequence (P14867 whole entry): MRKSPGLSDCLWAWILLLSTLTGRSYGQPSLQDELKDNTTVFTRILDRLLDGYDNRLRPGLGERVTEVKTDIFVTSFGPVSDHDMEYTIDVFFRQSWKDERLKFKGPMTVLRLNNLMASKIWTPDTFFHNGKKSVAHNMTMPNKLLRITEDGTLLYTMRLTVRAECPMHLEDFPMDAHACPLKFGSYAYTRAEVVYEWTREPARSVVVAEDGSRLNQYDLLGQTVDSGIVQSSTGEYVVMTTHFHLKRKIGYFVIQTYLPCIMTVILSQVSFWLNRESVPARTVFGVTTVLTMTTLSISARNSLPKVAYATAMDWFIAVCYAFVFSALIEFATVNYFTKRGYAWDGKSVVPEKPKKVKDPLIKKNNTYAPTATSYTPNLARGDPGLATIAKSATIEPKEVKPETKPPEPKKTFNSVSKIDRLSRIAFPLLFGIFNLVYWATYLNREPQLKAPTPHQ
T1 sequence (P18507 whole entry): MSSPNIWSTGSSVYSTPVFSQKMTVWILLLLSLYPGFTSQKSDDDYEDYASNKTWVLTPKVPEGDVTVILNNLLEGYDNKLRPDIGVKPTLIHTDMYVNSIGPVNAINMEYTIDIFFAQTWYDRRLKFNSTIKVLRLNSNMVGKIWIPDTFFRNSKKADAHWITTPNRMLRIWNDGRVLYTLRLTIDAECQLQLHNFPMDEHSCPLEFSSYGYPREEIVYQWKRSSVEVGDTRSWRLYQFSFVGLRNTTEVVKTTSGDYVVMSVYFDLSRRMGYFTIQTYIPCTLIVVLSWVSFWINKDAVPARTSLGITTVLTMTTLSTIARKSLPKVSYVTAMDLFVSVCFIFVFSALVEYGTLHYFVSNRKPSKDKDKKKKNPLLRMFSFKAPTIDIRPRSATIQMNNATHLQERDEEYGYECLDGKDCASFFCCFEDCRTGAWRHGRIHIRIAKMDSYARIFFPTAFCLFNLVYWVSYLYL
T1 sequence (P28472 whole entry): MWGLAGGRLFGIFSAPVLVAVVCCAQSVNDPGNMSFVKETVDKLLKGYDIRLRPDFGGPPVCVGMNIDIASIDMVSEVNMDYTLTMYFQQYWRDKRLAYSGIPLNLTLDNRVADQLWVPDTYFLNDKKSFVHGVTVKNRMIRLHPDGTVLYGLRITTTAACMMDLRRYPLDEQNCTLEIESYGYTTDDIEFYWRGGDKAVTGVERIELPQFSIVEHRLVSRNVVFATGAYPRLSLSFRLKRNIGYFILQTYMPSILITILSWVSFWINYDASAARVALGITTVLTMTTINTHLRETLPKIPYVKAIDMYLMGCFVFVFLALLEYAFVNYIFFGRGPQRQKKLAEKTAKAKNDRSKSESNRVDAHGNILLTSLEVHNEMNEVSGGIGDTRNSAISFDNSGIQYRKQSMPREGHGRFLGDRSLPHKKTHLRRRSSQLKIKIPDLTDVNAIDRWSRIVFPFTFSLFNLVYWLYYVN
Nature of the test: Modulation of GABAA alpha1beta3gamma2S receptor (unknown origin) expressed in Xenopus laevis oocytes assessed as potentiation of EC3 to 10 GABA-induced chloride ion current at holding potential -70 mV by two-microelectrode voltage clamp assay. The class given is cell-based.

The nature of test [4]: Modulation of GABAA alpha1beta1gamma2S receptor (unknown origin) expressed in Xenopus laevis oocytes assessed as potentiation of EC3 to 10 GABA-induced chloride ion current at holding potential -70 mV by two-microelectrode voltage clamp assay. Format: cell-based. The following applies: Homo sapiens.
The target of test [5] is T2, GABA A receptor alpha-3/beta-2/gamma-2 (Homo sapiens, UniProt P18507+P34903+P47870).
T2 sequence (P47870 whole entry): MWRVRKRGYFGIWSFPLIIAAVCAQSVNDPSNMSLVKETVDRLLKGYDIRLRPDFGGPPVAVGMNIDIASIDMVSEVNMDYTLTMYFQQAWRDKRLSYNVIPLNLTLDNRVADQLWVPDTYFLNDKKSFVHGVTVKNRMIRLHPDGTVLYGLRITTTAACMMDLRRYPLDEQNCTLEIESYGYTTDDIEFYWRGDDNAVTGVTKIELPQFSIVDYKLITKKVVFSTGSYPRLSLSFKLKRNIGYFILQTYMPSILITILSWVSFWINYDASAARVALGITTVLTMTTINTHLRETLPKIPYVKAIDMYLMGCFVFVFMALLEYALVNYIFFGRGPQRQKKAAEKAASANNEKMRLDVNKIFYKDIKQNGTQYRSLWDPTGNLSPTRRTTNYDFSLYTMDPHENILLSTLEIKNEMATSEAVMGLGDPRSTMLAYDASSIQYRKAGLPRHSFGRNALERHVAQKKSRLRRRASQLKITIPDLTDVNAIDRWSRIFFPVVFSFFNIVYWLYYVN
T2 sequence (P18507 whole entry): T1 sequence (P18507 whole entry)
T2 sequence (P34903 whole entry): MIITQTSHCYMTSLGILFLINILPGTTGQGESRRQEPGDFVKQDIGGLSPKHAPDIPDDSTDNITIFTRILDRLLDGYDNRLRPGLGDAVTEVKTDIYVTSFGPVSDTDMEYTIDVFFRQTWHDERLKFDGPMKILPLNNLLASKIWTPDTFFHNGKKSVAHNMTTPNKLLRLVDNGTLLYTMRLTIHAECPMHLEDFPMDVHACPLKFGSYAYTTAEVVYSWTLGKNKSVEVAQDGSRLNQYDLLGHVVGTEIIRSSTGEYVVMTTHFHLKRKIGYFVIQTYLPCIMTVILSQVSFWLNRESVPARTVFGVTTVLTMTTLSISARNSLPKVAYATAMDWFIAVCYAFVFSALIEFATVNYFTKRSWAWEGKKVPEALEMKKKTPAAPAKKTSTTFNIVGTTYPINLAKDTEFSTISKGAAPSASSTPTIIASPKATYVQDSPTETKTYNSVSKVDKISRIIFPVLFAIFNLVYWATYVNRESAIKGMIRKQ
Put plainly: Modulation of GABAA alpha3beta2gamma2S receptor (unknown origin) expressed in Xenopus laevis oocytes assessed as potentiation of EC3 to 10 GABA-induced chloride ion current at holding potential -70 mV by two-microelectrode voltage clamp assay. Format: cell-based.

Experimental findings from ChEMBL document CHEMBL3112517, “Identification of dihydrostilbenes in Pholidota chinensis as a new scaffold for GABAA receptor modulators” (Bioorg Med Chem, 2014) are described below.

Consider `COc1cc(O)cc(CCc2cccc(O)c2)c1` [BATATASIN III], for which, in test [1], the Ratio stood at 4. Besides, the Imax in test [2] came out at 1690%. Moreover, the EC50 was determined as 67.2 µM in test [3], 66.7 µM in test [4] and 67.3 µM in test [5].

Usually EC50 stands for the concentration needed to bring the measured effect to its halfway point.
